“Also recorded” adds a separate entry of the source.
Tests used:
[1] = system: fungal biofilm (C. albicans); assay: Fungal biofilm inhibition assay; type: cell-based, Candida albicans
Procedure: (§1) Two types of biofilm assays were performed: an inhibition assay and a disruption assay. The inhibition assay assesses the compound's ability to prevent biofilm development, while the disruption assay assesses the compound's ability to break up an existing mature biofilm.
(§2) All bacterial biofilm solutions were prepared in Tryptic Soy Broth (TSB), supplemented with 1% glucose (henceforth referred to as TSB-G). All subsequent procedures were performed in a manner that maintained sterility. A solution of each amino acid or an amino acid derivative to be tested was prepared in weight to volume concentrations ranging from 0.1-5.0%. Amino acids and amino acid derivatives were also tested in combinations. Compound solutions were homogenized with gentle agitation in the dark (4° C., 24 hours) before use.
(§3) 32 Amino acids and 2 amino acid derivatives of the amino acid serine that occur freely in human blood were tested. […] 31 of the 32 amino acids that were tested were the L-Isomers. Glycine has no stereoisomers. The 2 amino acid derivatives, ethanolamine and phosphoethanolamine were also tested. All biofilm assays were performed using 384-well non-tissue culture-treated polystyrene plates. The fungal species tested are as follows: Candida albicans, Candida guilliermondii, Candida parapsilosis, Candida glabrata, Candida tropicalis and Candida dubliniensis. The bacterial species tested are as follows: Staphylococci (standard wild type and methicillin-resistant strain USA300), Escherichia coli, Pseudomonas aeruginosa and Staphylococcus epidermidis.
(§4) Fungal strains were streaked on Yeast Peptone Dextrose (YPD) agar plates and incubated at 30° C. for 48 hours. A single colony from each strain to be tested was inoculated into YPD broth and grown for 12 hours at 30° C., shaking at 225 rpm. […] The cells were allowed to adhere to the plate for 90 minutes at 37° C. with shaking (350 rpm). […] The plate was further incubated for 24 hours at 37° C. with shaking (350 rpm). Media was carefully aspirated and the biofilm was measured by optical density at 600 nm. […] The cells were allowed to adhere to the plate for 90 minutes at 37° C. with shaking (350 rpm). […] The plate was further incubated for 24 hours at 37° C. with shaking (350 rpm). […] The plate was further incubated for 24 hours at 37° C. with shaking (350 rpm). Media was carefully aspirated, and the biofilm was measured by optical density at 600 nm.

[2] = system: fungal biofilm (C. albicans); assay: Fungal biofilm disruption assay; type: cell-based, Candida albicans
Procedure: as §1, §2, §3, §4

[3] = system: bacterial (S. aureus) biofilm; assay: Bacterial biofilm disruption assay; type: cell-based, Staphylococcus aureus
Procedure: as §1, §2, §3
(§5) Bacterial strains were streaked on Blood Agar plates (5% sheep blood in Tryptic Soy Broth) and incubated at 37° C. for 24 hours. A single colony from each strain to be tested was inoculated in a TSB broth and grown for 12 hours, at 37° C. with shaking (225 rpm). For the bacterial biofilm inhibition assays, 1 μL of saturated overnight cell culture was added to either 80 μL of TSB-G, or TSB-G supplemented with the amino acid compound solution to be tested, in a 384-well plate. The cells were allowed to adhere to the plate for 60 minutes at 37° C. without shaking. The media was carefully aspirated and 80 μL of TSB-G, or TSB-G supplemented with the amino acid compound solution was added to the plate. The plate was further incubated for 24 hours at 37° C. without shaking. Media was carefully aspirated and the biofilm was measured by optical density at 600 nm. Eight or twelve replicates were performed for each tested condition and the reported values are normalized to the control (TSB-G media only). For the bacterial biofilm disruption assays, 80 µL of TSB-G was added to the plate, along with 1 μL of overnight cell culture. The cells were allowed to adhere to the plate for 60 minutes at 37° C. with no shaking. The media was carefully aspirated and 80 μL of TSB-G was added to the plate. The plate was further incubated for 24 hours at 37° C. with no shaking. Media was carefully aspirated from the mature biofilm and 80 μL of TSB-G, or TSB-G supplemented with the amino acid to be tested, was gently added to the plate. The plate was further incubated for 24 hours at 37° C. without shaking. Media was aspirated and the biofilm was measured by optical density at 600 nm. Twelve replicates were performed for each tested condition and the reported values are normalized to the control (TSB-G media only).

bacterial biofilm = assay: In vitro testing on bacterial biofilm (inhibition and/or disruption); type: cell-based
Procedure: as §1, §2, §3, §5

fungal biofilm = assay: In vitro testing on fungal biofilm (inhibition and/or disruption); type: cell-based
Procedure: as §1, §2, §3, §4

[4] = system: bacterial (S. aureus) biofilm; assay: Bacterial biofilm inhibition assay; type: cell-based, Staphylococcus aureus
Procedure: as §1, §2, §3, §5

[5] = system: bacterial (S. aureus) biofilm and fungal biofilm (C. albicans); assay: Biofilm inhibition assay, bacterial and fungal taken together; type: cell-based; details: symbol marks the assay
Procedure: as §1, §2, §3, §4
as §5, with “plate.” for “plate. The plate was further incubated for 24 hours at 37° C. without shaking. Media was aspirated and the biofilm was measured by optical density at 600 nm. Twelve replicates were performed for each tested condition and the reported values are normalized to the control (TSB-G media only).”

[6] = Table E, in the absence of an infusion of glycerol
[7] = Table F, in the presence of a sufficient concentration of glycerol
[8] = in the presence of a therapeutic concentration of glycerol

| Compound | Promote F Biofilm (dots: Disruption Biofilm Assay) [2, 6] | Reduce or Inhibit B Biofilm (dots: Disruption Biofilm Assay) ([3]; Table D, 0.1 to 5.0%) | Reduce or Inhibit B Biofilm (dots: Disruption Biofilm Assay) [3, 7] | effect on bacterial biofilm (in words) (bacterial biofilm; in vitro testing) | effect on fungal biofilm (in words) (fungal biofilm; in vitro testing) | Reduce or Inhibit F Biofilm (squares: Inhibition Biofilm Assay) ([1]; Table D, 0.1 to 5.0%) | Reduce or Inhibit F Biofilm (squares: Inhibition Biofilm Assay) [1, 7] | other results |
| --- | --- | --- | --- | --- | --- | --- | --- | --- |
| Cn1cncc1C[C@H](N)C(=O)O [3-Methylhistidine, 3-methyl-L-histidine] | ● (Single dot [ie. ●] signifies little effect on the Disruption Biofilm Assay (from about 10 to less than 30%)) | ● (Single dot [ie. ●] signifies little effect on the Disruption Biofilm Assay (from about 10 to less than 30%)) | ● (Single dot [ie. ●] signifies little effect on the Disruption Biofilm Assay (from about 10 to less than 30%)) | antibacterial biofilm effect | promoted fungal biofilm formation | – | – | Promote F Biofilm (squares: Inhibition Biofilm Assay) ([1]; Table D, 0.1 to 5.0%): ▪ (Single square [ie. ▪] signifies little effect on the Inhibition Biofilm Assay (from about 10 to less than 30%)); Promote F Biofilm (squares: Inhibition Biofilm Assay) [1, 6]: ▪ (Single square [ie. ▪] signifies little effect on the Inhibition Biofilm Assay (from about 10 to less than 30%)); Promote F Biofilm (dots: Disruption Biofilm Assay) ([2]; Table D, 0.1 to 5.0%): ● (Single dot [ie. ●] signifies little effect on the Disruption Biofilm Assay (from about 10 to less than 30%)) |
| O=C(O)[C@@H]1C[C@@H](O)CN1 [Hydroxyproline, Trans-4-hydroxy-L-proline] | – | ● (Single dot [ie. ●] signifies little effect on the Disruption Biofilm Assay (from about 10 to less than 30%)) | ● (Single dot [ie. ●] signifies little effect on the Disruption Biofilm Assay (from about 10 to less than 30%)) | antibacterial biofilm effect | antifungal biofilm effects | ▪ (Single square [ie. ▪] signifies little effect on the Inhibition Biofilm Assay (from about 10 to less than 30%)) | ▪ (Single square [ie. ▪] signifies little effect on the Inhibition Biofilm Assay (from about 10 to less than 30%)) | Reduce or Inhibit B Biofilm (squares: Inhibition Biofilm Assay) ([4]; Table D, 0.1 to 5.0%): ▪ (Single square [ie. ▪] signifies little effect on the Inhibition Biofilm Assay (from about 10 to less than 30%)); Reduce or Inhibit B Biofilm (squares: Inhibition Biofilm Assay) [4, 7]: ▪ (Single square [ie. ▪] signifies little effect on the Inhibition Biofilm Assay (from about 10 to less than 30%)) |
| CC(C)[C@H](N)C(=O)O [Valine, L-valine] | ● (Single dot [ie. ●] signifies little effect on the Disruption Biofilm Assay (from about 10 to less than 30%)) | ● (Single dot [ie. ●] signifies little effect on the Disruption Biofilm Assay (from about 10 to less than 30%)) | ● (Single dot [ie. ●] signifies little effect on the Disruption Biofilm Assay (from about 10 to less than 30%)) | anti-bacterial biofilm effect | supported fungal biofilm formation; also recorded: pro-fungal biofilm effect; also recorded: promoted fungal biofilm formation | – | – | effect on bacterial biofilm (in words) (bacterial biofilm; [8]): anti-bacterial biofilm effect; effect on bacterial biofilm (in words) (bacterial biofilm; in the presence of a therapeutic concentration of glycerol, listed as valine): anti-bacterial biofilm effect became dominant; effect on fungal biofilm (in words) (fungal biofilm; [8]): lost its pro-fungal biofilm effect; effect on fungal biofilm (in words) (fungal biofilm; in vitro testing, listed as valine): supported the formation of biofilm made by biofilm-forming fungi |
| NCCO [Ethanolamine, ethanolamine] | – | – | – | – | antifungal biofilm effect | ▪ (Single square [ie. ▪] signifies little effect on the Inhibition Biofilm Assay (from about 10 to less than 30%)) | ▪ (Single square [ie. ▪] signifies little effect on the Inhibition Biofilm Assay (from about 10 to less than 30%)) | – |
| N[C@@H](COP(=O)(O)O)C(=O)O [Phosphoserine, O-phospho-L-serine] | – | ● (Single dot [ie. ●] signifies little effect on the Disruption Biofilm Assay (from about 10 to less than 30%)) | ● (Single dot [ie. ●] signifies little effect on the Disruption Biofilm Assay (from about 10 to less than 30%)) | antibacterial biofilm effect | antifungal biofilm effects | – | – | Reduce or Inhibit F Biofilm (dots: Disruption Biofilm Assay) ([2]; Table D, 0.1 to 5.0%): ● (Single dot [ie. ●] signifies little effect on the Disruption Biofilm Assay (from about 10 to less than 30%)); Reduce or Inhibit F Biofilm (dots: Disruption Biofilm Assay) [2, 7]: ● (Single dot [ie. ●] signifies little effect on the Disruption Biofilm Assay (from about 10 to less than 30%)); Neutral (square: Inhibition Biofilm Assay) ([5]; Table D, Neutral = no effect on the biofilm): ▪ (Single square [ie. ▪] signifies little effect on the Inhibition Biofilm Assay (from about 10 to less than 30%)); Neutral (square: Inhibition Biofilm Assay) [5, 6]: ▪ (Single square [ie. ▪] signifies little effect on the Inhibition Biofilm Assay (from about 10 to less than 30%)); Neutral (square: Inhibition Biofilm Assay) [5, 7]: ▪ (Single square [ie. ▪] signifies little effect on the Inhibition Biofilm Assay (from about 10 to less than 30%)) |

From patent US12109176B1, “Effect of glycerol on biofilm forming bacteria and fungi that changes the microbes sensitivity to pro and anti-biofilm non-toxic, non-bonded plasma amino acids and amino acid derivatives” (priority 2023, dated 2024)
